These results are taken from patent publication US11673883B2, “Heterocyclic compounds as immunomodulators” (Incyte Corporation, priority 2016, dated 2023).

The IC50 is the midpoint of a concentration-inhibition curve.

Chain of PD-1/PD-L1 protein/protein interaction (Q9NZQ7 19-238): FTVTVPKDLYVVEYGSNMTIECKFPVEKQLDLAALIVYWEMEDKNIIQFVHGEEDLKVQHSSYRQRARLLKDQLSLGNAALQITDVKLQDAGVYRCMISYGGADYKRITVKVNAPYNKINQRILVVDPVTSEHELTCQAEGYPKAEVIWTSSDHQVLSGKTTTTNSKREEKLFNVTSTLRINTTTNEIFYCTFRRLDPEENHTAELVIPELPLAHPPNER

This assay has as its target PD-1/PD-L1 protein/protein interaction (Homo sapiens (Human), UniProt Q9NZQ7). Put plainly: PD-1/PD-L1 Homogeneous Time-Resolved Fluorescence (HTRF) Binding Assay. The note with it: recombinant human PD-L1 (19-238) His-tag, human PD-1 (25-167) Fc tag; 25° C., PBS pH 7.4. As to the method: Example A. PD-1/PD-L1 Homogeneous Time-Resolved Fluorescence (HTRF) Binding Assay
The assays were conducted in a standard black 384-well polystyrene plate with a final volume of 20 μL. Inhibitors were first serially diluted in DMSO and then added to the plate wells before the addition of other reaction components. The final concentration of DMSO in the assay was 1%. The assays were carried out at 25° C. in the PBS buffer (pH 7.4) with 0.05% Tween-20 and 0.1% BSA. Recombinant human PD-L1 protein (19-238) with a His-tag at the C-terminus was purchased from AcroBiosystems (PD1-H5229). Recombinant human PD-1 protein (25-167) with Fc tag at the C-terminus was also purchased from AcroBiosystems (PD1-H5257). PD-L1 and PD-1 proteins were diluted in the assay buffer and […] was added to the plate well. Plates were centrifuged and proteins were preincubated with inhibitors for 40 minutes. The incubation was followed by the addition of 10 μL of HTRF detection buffer supplemented with Europium cryptate-labeled anti-human IgG (PerkinElmer-AD0212) specific for Fc and anti-His antibody conjugated to SureLight®-Allophycocyanin (APC, PerkinElmer-AD0059H). After centrifugation, the plate was incubated at 25° C. for 60 min. before reading on a PHERAstar FS plate reader (665 nm/620 nm ratio). Final concentrations in the assay were […], 10 nM PD-L1, 1 nM europium anti-human IgG and 20 nM anti-His-Allophycocyanin. IC50 determination was performed by fitting the curve of percent control activity versus the log of the inhibitor concentration using the GraphPad Prism 5.0 software.
(In general: In TR-FRET formats the signal depends on donor and acceptor labels being close together.)
Take `Cc1c(-c2ccccc2)cccc1N1CCC(N[C@H]2CC[C@@H](O)CC2)CC1` [Example 33, cis-4-(1-(2-methylbiphenyl-3-yl)piperidin-4-ylamino)cyclohexanol]: the IC50 was no more than 0.1 µM.
The same measure for `Cc1c(-c2ccccc2)cccc1N1CCC(NC2CCC(CC#N)CC2)CC1` (centres unmarked) [Example 39, 2-(4-(1-(2-methylbiphenyl-3-yl)piperidin-4-ylamino)cyclohexyl) acetonitrile]: no more than 0.1 µM; for `Cc1c(-c2ccccc2)cccc1N1CCC(NC2CCC(C#N)CC2)CC1` (single isomer, unassigned) [40 (peak 2), 4-(1-(2-methylbiphenyl-3-yl)piperidin-4-ylamino)cyclohexane carbonitrile]: no more than 0.1 µM; for `N#Cc1c(-c2ccc3c(c2)OCCO3)cccc1N1CCC(N[C@H]2CC[C@H](O)CC2)CC1` [Example 24, 2-(2,3-dihydrobenzo[b][1,4]dioxin-6-yl)-6-(4-(trans-4-hydroxycyclohexylamino)piperidin-1-yl)benzonitrile]: no more than 0.1 µM.
The figure for `N#Cc1c(C2=CCCCC2)cccc1N1CCC(N2CCCC2)CC1` [Example 50, 2-cyclohexenyl-6-(4-(pyrrolidin-1-yl)piperidin-1-yl)benzonitrile] is no more than 0.1 µM; for `Cc1c(-c2ccccc2)cccc1N1CCC(NC2CCC(C(=O)O)CC2)CC1` (single isomer, unassigned) [41 (peak 1), 4-(1-(2-methylbiphenyl-3-yl)piperidin-4-ylamino)cyclohexane-carboxylic acid] it is no more than 0.1 µM.
The same measure for `N#Cc1c(-c2ccc3c(c2)OCCO3)cccc1N1CCC(N[C@H]2C[C@H](O)C2)CC1` [Example 18, 2-(2,3-dihydrobenzo[b][1,4]dioxin-6-yl)-6-(4-(trans-3-hydroxycyclobutylamino)piperidin-1-yl)benzonitrile]: no more than 0.1 µM; for `CC1(NC2CCN(c3cccc(-c4ccc5c(c4)OCCO5)c3C#N)CC2)CC1` [Example 22, 2-(2,3-dihydrobenzo[b][1,4]dioxin-6-yl)-6-(4-(1-methylcyclopropylamino)piperidin-1-yl)benzonitrile]: no more than 0.1 µM; for `Cc1c(-c2ccccc2)cccc1N1CCC(NC2CCC(C(=O)O)(c3ccc(Cl)cc3)CC2)CC1` (single isomer, unassigned) [47 (peak 2), 1-(4-chlorophenyl)-4-(1-(2-methylbiphenyl-3-yl)piperidin-4-ylamino)cyclohexane-carboxylic acid]: no more than 0.1 µM.
Take `Cc1c(-c2ccccc2)cccc1N1CCC(NC2CCCC2)CC1` [Example 37, N-cyclopentyl-1-(2-methylbiphenyl-3-yl)piperidin-4-amine]: the IC50 was no more than 0.1 µM.
The same measure for `CC(O)C1CCN(C2CCN(c3cccc(-c4ccc5c(c4)OCCO5)c3C#N)CC2)C1` (centres unmarked) [Example 21, 2-(2,3-dihydrobenzo[b][1,4]dioxin-6-yl)-6-(4-(3-(1-hydroxyethyl)pyrrolidin-1-yl)piperidin-1-yl)benzonitrile]: no more than 0.1 µM; for `C[C@@H]1CN(C2CCN(c3cccc(-c4ccc5c(c4)OCCO5)c3C#N)CC2)C[C@H]1CO` (relative stereo) [Example 9, 2-(2,3-dihydrobenzo[b][1,4]dioxin-6-yl)-6-(4-(trans-3-(hydroxymethyl)-4-methylpyrrolidin-1-yl)piperidin-1-yl)benzonitrile]: no more than 0.1 µM; for `CO[C@H]1C[C@@H](NC2CCN(c3cccc(-c4ccc5c(c4)OCCO5)c3C#N)CC2)C1` [Example 14, 2-(2,3-dihydrobenzo[b][1,4]dioxin-6-yl)-6-(4-(cis-3-methoxycyclobutylamino)piperidin-1-yl)benzonitrile]: no more than 0.1 µM.
As to `Cc1c(-c2ccccc2)cccc1N1CCC(NC2CCCC(C(=O)O)C2)CC1` (single isomer, unassigned) [46 (peak 1), 3-(1-(2-methylbiphenyl-3-yl)piperidin-4-ylamino)cyclohexane carboxylic acid], the concentration for half-maximal inhibition (IC50) is no more than 0.1 µM.
Regarding `CN(C)C1CCN(c2cccc(-c3ccc4c(c3)OCCO4)c2C#N)CC1` [Example 3, 2-(2,3-dihydrobenzo[b][1,4]dioxin-6-yl)-6-(4-(dimethylamino)piperidin-1-yl)benzonitrile], the IC50 lay in the range of 0.1 to 0.5 µM.
The same measure for `CC(C)(CO)CNC1CCN(c2cccc(-c3ccc4c(c3)OCCO4)c2C#N)CC1` [Example 6, 2-(2,3-dihydrobenzo[b][1,4]dioxin-6-yl)-6-(4-(3-hydroxy-2,2-dimethylpropylamino)piperidin-1-yl)benzonitrile]: no more than 0.1 µM; for `N#Cc1c(-c2ccc3c(c2)OCCO3)cccc1N1CCC(N2CCC(CCO)C2)CC1` (centres unmarked) [Example 15, 2-(2,3-dihydrobenzo[b][1,4]dioxin-6-yl)-6-(4-(3-(2-hydroxyethyl)pyrrolidin-1-yl)piperidin-1-yl)benzonitrile]: no more than 0.1 µM; for `N#Cc1c(-c2cccc(F)c2)cccc1N1CCC(N2CCCC2)CC1` [Example 49, 3′-fluoro-3-(4-(pyrrolidin-1-yl)piperidin-1-yl)biphenyl-2-carbonitrile]: no more than 0.1 µM.
The same measure for `N#Cc1c(-c2ccc3c(c2)OCCO3)cccc1N1CCC(NC2CCCC2CO)CC1` (stereo not drawn) [Example 17, 2-(2,3-dihydrobenzo[b][1,4]dioxin-6-yl)-6-(4-(cis-2-(hydroxymethyl)cyclopentylamino)piperidin-l-yl)benzonitrile]: no more than 0.1 µM.
The figure for `CO[C@H]1C[C@H](NC2CCN(c3cccc(-c4ccc5c(c4)OCCO5)c3C#N)CC2)C1` [Example 13, 2-(2,3-dihydrobenzo[b][1,4]dioxin-6-yl)-6-(4-(trans-3-methoxycyclobutylamino)piperidin-1-yl)benzonitrile] is no more than 0.1 µM; for `N#Cc1c(-c2ccc3c(c2)OCCO3)cccc1N1CCC(N[C@H]2C[C@@H](CO)C2)CC1` [Example 8, 2-(2,3-dihydrobenzo[b][1,4]dioxin-6-yl)-6-(4-(cis-3-(hydroxymethyl)cyclobutyl-amino)piperidin-l-yl)benzonitrile] it is no more than 0.1 µM; for `N#Cc1c(-c2ccc3c(c2)OCCO3)cccc1N1CCC(NC2CCOCC2)CC1` [Example 7, 2-(2,3-dihydrobenzo[b][1,4]dioxin-6-yl)-6-(4-(tetrahydro-2H-pyran-4-ylamino)piperidin-1-yl)benzonitrile] it is no more than 0.1 µM.
Regarding `N#Cc1c(C2CCCCC2)cccc1N1CCC(N2CCCC2)CC1` [Example 51, 2-cyclohexyl-6-(4-(pyrrolidin-1-yl)piperidin-1-yl)benzonitrile], the IC50 lay in the range of 0.1 to 0.5 µM.
The same measure for `N#Cc1c(-c2ccc3c(c2)OCCO3)cccc1N1CCC(N[C@@H]2CCCC[C@H]2CO)CC1` (relative stereo) [Example 12, 2-(2,3-dihydrobenzo[b][1,4]dioxin-6-yl)-6-(4-(trans-2-(hydroxymethyl)cyclohexylamino)piperidin-1-yl)benzonitrile]: no more than 0.1 µM; for `N#Cc1c(-c2ccc3c(c2)OCCO3)cccc1N1CCC(NC2CC3(CCC3)C2)CC1` [Example 10, 2-(2,3-dihydrobenzo[b][1,4]dioxin-6-yl)-6-(4-(spiro[3.3]heptan-2-ylamino)piperidin-l-yl)benzonitrile]: no more than 0.1 µM.
The same measure for `Cc1c(-c2ccccc2)cccc1N1CCC(NC2CCc3c(c(C(=O)O)nn3C)C2)CC1` (racemic) [Example 38, 1-methyl-5-(1-(2-methylbiphenyl-3-yl)piperidin-4-ylamino)-4,5,6,7-tetrahydro-1H-indazole-3-carboxylic acid]: no more than 0.1 µM; for `N#Cc1c(-c2ccc3c(c2)OCCO3)cccc1N1CCC(NC[C@@H]2CCCC[C@@H]2O)CC1` (relative stereo) [Example 19, 2-(2,3-dihydro-1,4-benzodioxin-6-yl)-6-[4-({[cis-2-hydroxycyclohexyl]methyl}amino)piperidin-1-yl]benzonitrile]: no more than 0.1 µM; for `COCC(C)NC1CCN(c2cccc(-c3ccccc3)c2C)CC1` (racemic) [Example 44, N-(1-methoxypropan-2-yl)-1-(2-methylbiphenyl-3-yl)piperidin-4-amine]: no more than 0.1 µM.
The figure for `N#Cc1c(-c2ccc3c(c2)OCCO3)cccc1N1CCC(NC2CC2)CC1` [Example 2, 2-(4-(cyclopropylamino)piperidin-1-yl)-6-(2,3-dihydrobenzo[b][1,4]dioxin-6-yl)benzonitrile] is no more than 0.1 µM; for `N#Cc1c(-c2ccc3c(c2)OCCO3)cccc1N1CCC(N[C@H]2C[C@@H](O)C2)CC1` [Example 1, 2-(2,3-dihydro-1,4-benzodioxin-6-yl)-6-{4-[(cis-3-hydroxycyclobutyl)amino]piperidin-1-yl}benzonitrile] it is no more than 0.1 µM.
Take `Cc1c(-c2ccccc2)cccc1N1CCC(N[C@H]2C[C@H](O)C2)CC1` [Example 28, trans-3-(1-(2-methylbiphenyl-3-yl)piperidin-4-ylamino)cyclobutanol]: the IC50 is no more than 0.1 µM.
Consider `Cc1c(-c2ccccc2)cccc1N1CCC(N2CCCC2)CC1` [Example 32, 1-(2-methylbiphenyl-3-yl)-4-(pyrrolidin-1-yl)piperidine], for which the IC50 is no more than 0.1 µM.
